The values that follow come from patent publication US8173645B2 (Takeda San Diego, Inc., priority 2007, dated 2012).

The assay deals with T1, glucokinase (GK), residues 12-465 of the human enzyme (Homo sapiens, UniProt P35557).
T1 construct: I.D. No. 1 corresponds to residues 12-465 of glucokinase; made in house; host or cells: E. coli DH10b-Tlr
T1 sequence (P35557 with tags, fused parts or gaps isoform P35557-2): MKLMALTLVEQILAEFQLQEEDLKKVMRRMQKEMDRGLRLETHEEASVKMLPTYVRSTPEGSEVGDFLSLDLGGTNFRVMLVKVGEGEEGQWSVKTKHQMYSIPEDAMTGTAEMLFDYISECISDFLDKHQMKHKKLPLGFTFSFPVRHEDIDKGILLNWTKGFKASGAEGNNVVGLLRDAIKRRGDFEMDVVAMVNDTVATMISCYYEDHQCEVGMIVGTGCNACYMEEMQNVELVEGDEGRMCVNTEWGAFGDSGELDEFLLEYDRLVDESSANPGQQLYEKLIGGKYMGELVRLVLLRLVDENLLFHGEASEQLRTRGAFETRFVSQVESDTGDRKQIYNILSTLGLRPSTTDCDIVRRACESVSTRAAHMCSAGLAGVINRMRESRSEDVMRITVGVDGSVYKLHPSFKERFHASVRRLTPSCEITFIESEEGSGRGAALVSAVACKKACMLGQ
The experiment in a line: Enzymatic glucokinase activity assay (KinaseGlo luminescence, ATP consumption). It counts as biochemical. Particulars: 5 μM ATP, 5 mM Glucose; for EC50: GK activation, Kact = concentration giving 50% of the maximal increase in GK activity, read-out: pKact; for Emax: calculated maximal gain in GK enzyme activity at a saturating concentration of the compound, read-out: % ACTmax. In outline:
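C-terminally FLAG-tagged enzyme expressed in E. coli and purified. Reaction: 25 mM Hepes pH 7.2, 25 mM NaCl, 10 mM MgCl2, 0.01% Brij35, 1 mM DTT, 5 μM ATP, 5 mM glucose, 2% DMSO, 60 min at room temperature. Remaining ATP was read by luciferase luminescence; pKact and % ACTmax came from nonlinear fits of 11-point 2-fold dilutions.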

As for `Cc1cc(S(=O)(=O)N2CCN([C@@H](CC3CCCCC3)C(=O)Nc3nccs3)C(=O)C2)c(C)cc1Cl` [Example 186, (S)-2-(4-(4-chloro-2,5-dimethylphenylsulfonyl)-2-oxopiperazin-1-yl)-3-cyclohexyl-N-(thiazol-2-yl)propanamide], the EC50 was ≤ 631 nM and the Emax is ≤ 74%.
Take `Cc1c(Cl)cc(F)cc1S(=O)(=O)N1CCN([C@@H](CC2CCCCC2)C(=O)Nc2nccs2)C(=O)C1` [Example 187, (S)-2-(4-(3-chloro-5-fluoro-2-methylphenylsulfonyl)-2-oxopiperazin-1-yl)-3-cyclohexyl-N-(thiazol-2-yl)propanamide]: the EC50 was ≤ 631 nM and the Emax was 74.1 to 97%.
For `O=C(Nc1nccs1)[C@H](CC1CCCCC1)N1CCN(S(=O)(=O)c2cccc(Cl)c2F)CC1=O` [Example 188, (S)-2-(4-(3-chloro-2-fluorophenylsulfonyl)-2-oxopiperazin-1-yl)-3-cyclohexyl-N-(thiazol-2-yl)propanamide], the EC50 was ≤ 631 nM and the Emax is ≥ 119%.
`Cc1ccc(S(=O)(=O)N2CCN([C@@H](CC3CCCCC3)C(=O)Nc3nccs3)C(=O)C2)cc1F` [Example 189, (S)-3-cyclohexyl-2-(4-(3-fluoro-4-methylphenylsulfonyl)-2-oxopiperazin-1-yl)-N-(thiazol-2-yl)propanamide]: the EC50 is ≤ 631 nM and the Emax is 108 to 119%.
On the same counts, the results for `O=C(Nc1nccs1)[C@H](CC1CCCCC1)N1CCN(S(=O)(=O)c2cc(F)c(Cl)cc2F)CC1=O` [Example 190, (S)-2-(4-(4-chloro-2,5-difluorophenylsulfonyl)-2-oxopiperazin-1-yl)-3-cyclohexyl-N-(thiazol-2-yl)propanamide] are 794 to 1260 nM and 74.1 to 97%.
The like results for `Cc1ccc(F)cc1S(=O)(=O)N1CCN([C@@H](CC2CCCCC2)C(=O)Nc2nccs2)C(=O)C1` [Example 191, (S)-3-cyclohexyl-2-(4-(5-fluoro-2-methylphenylsulfonyl)-2-oxopiperazin-1-yl)-N-(thiazol-2-yl)propanamide] were, in that order, ≤ 631 nM and 108 to 119%.
`Cc1cccc(S(=O)(=O)N2CCN([C@@H](CC3CCCCC3)C(=O)Nc3nccs3)C(=O)C2)c1` [Example 192, (S)-3-cyclohexyl-2-(2-oxo-4-(m-tolylsulfonyl)piperazin-1-yl)-N-(thiazol-2-yl)propanamide]: the EC50 was ≤ 631 nM and the Emax is ≥ 119%.
`Cn1nc(C(F)(F)F)cc1-c1ccc(S(=O)(=O)N2CCN([C@@H](CC3CCCCC3)C(=O)Nc3nccs3)C(=O)C2)s1` [Example 193, (S)-3-cyclohexyl-2-(4-(5-(1-methyl-3-(trifluoromethyl)-1H-pyrazol-5-yl)thiophen-2-ylsulfonyl)-2-oxopiperazin-1-yl)-N-(thiazol-2-yl)propanamide]: the EC50 is ≤ 631 nM and the Emax is ≤ 74%.
As for `COc1ccc(OC)c(S(=O)(=O)N2CCN([C@@H](CC3CCCCC3)C(=O)Nc3nccs3)C(=O)C2)c1` [Example 194, (S)-3-cyclohexyl-2-(4-(2,5-dimethoxyphenylsulfonyl)-2-oxopiperazin-1-yl)N-(thiazol-2-yl)propanamide], the EC50 is 794 to 1260 nM and the Emax is 108 to 119%.
Turning to `Cc1cc(C)cc(S(=O)(=O)N2CCN([C@@H](CC3CCCCC3)C(=O)Nc3nccs3)C(=O)C2)c1` [Example 195, (S)-3-cyclohexyl-2-(4-(3,5-dimethylphenylsulfonyl)-2-oxopiperazin-1-yl)-N-(thiazol-2-yl)propanamide], the EC50 is ≤ 631 nM and the Emax is ≥ 119%.
As to `CC(=O)c1cccc(S(=O)(=O)N2CCN([C@@H](CC3CCCCC3)C(=O)Nc3nccs3)C(=O)C2)c1` [Example 196, (S)-2-(4-(3-acetylphenylsulfonyl)-2-oxopiperazin-1-yl)-3-cyclohexyl-N-(thiazol-2-yl)propanamide], the EC50 lay in the range of 1580 to 2510 nM and the Emax was 97.1 to 107%.
